In US20050176764A1, “Medicine for treating cancer” (KOWA CO., LTD, priority 2002, published 2005):
Structures can show the parent of a compound that is named as a salt.

Assays:
Assay type in all cases: cell-based
[1] = tested on: Human umbilical venous endothelial cells (HUVECs); assay: Gene expression analysis (GeneChip HuGene FL array) in TNFα-stimulated HUVECs; conditions: Example 10 at 1 μM, TSA at 10 μM
Method: Human umbilical venous endothelial cells (HUVECs) were placed in 10 cm dishes (3×10^5 cells/dish). Two days thereafter, Trichostatin A (TSA, produced by Upstate) dissolved in dimethyl sulfoxide (DMSO) and the compound prepared in Example 10 dissolved in DMSO were individually added to a final concentrations of 10 μM and 1 μM, respectively. Each sample was stimulated with TNFα (final concentration: 10 ng/mL, Genzyme-Techne). Four hours later, total RNA was extracted with ISOGEN (Nippon Gene Co., Ltd.). The subsequent procedure was performed in accordance with the manufacturer's protocol (Affymetrix). From the thus obtained total RNA, mRNA was purified by a conventional method. cDNA was synthesized from the purified mRNA, and then biotin-labeled cRNA was synthesized by in vitro transcription. The cRNA was purified and subjected to heat treatment for fragmentation. The fragmented cRNA was used in gene expression analysis.
Method of gene expression analysis: The thus-prepared fragmented cRNA was injected to a HuGene human FL array (Affymetrix), and allowed to hybridize for 16 hours at 45° C. After washing, streptavidin labeled with phycoerythrin, and biotinylated anti-streptavidin antibody were added to each sample in order to cause reaction. Gene expression information was read by use of a dedicated scanner for GeneChip™ (Hewlett Packard). The thus-obtained information was analyzed with GeneChip Software (Affymetrix) for comparison in terms of level of expression.

ACHN (renal cancer) = assay: Cancer cell growth inhibition, sulforhodamine B colorimetry; conditions: incubation two days
Method: (§1) Cultured human cancer cells were placed in a 96-well plate. On the following day, a solution of the compound prepared in Example 10 (in five concentrations resulting from 10-fold stepwise dilution: 10^−4, 10^−5, 10^−6, 10^−7, or 10^−8 M) was added, followed by incubation for two days. Cell count after growth was determined in each plate through colorimetry using sulforhodamine B. The concentration at which the cell count after growth was inhibited to 50% of that of the cell count of the control (in the absence of the compound prepared in Example 10) was calculated (GI50). Simultaneously, on the basis of the cell count just before addition of the compound prepared in Example 10 (time zero), the following value (concentration) was calculated. • TGI: a concentration at which cell growth is inhibited to a cell count equal to that at time zero (concentration at which no change in cell count is observed) • LC50: a concentration at which cell count is reduced to 50% of the cell count at time zero (cell-killing effect).

DMS114 (lung cancer) = assay: as above; conditions: DMS114, incubation two days
Method: as §1

HCC2998 (colon cancer) = assay: as above; conditions: HCC2998, incubation two days
Method: as §1

LOX-IMVI (melanoma) = assay: as above; conditions: incubation two days
Method: as §1

MCF-7 (breast cancer) = assay: as above; conditions: MCF-7, incubation two days
Method: as §1

MKN74 (stomach cancer) = assay: as above; conditions: MKN74, incubation two days
Method: as §1

OVCAR-3 (ovarian cancer) = assay: as above
Method: as §1

[2] = tested on: PC-3 (prostatic carcinoma); assay: as above; conditions: PC-3, incubation two days
Method: as §1

SF-539 (brain tumor) = assay: as above; conditions: SF-539, incubation two days
Method: as §1

[3] = tested on: cultured human cancer cells; assay: Cancer cell growth inhibition, sulforhodamine B colorimetry, overall statement; conditions: result in words
Method: as §1

[4] = out of 52 genes increased twice or more by TNFα
[5] = Homo sapiens, 48 h, read-out: LC50 (the source's name)

COc1ccc(N(Cc2ccnc(-c3cc(OC)c(OC)c(OC)c3)c2)C2CCN(Cc3ccnc(-c4cc(OC)c(OC)c(OC)c4)c3)CC2)cc1 [Example 10, 4-[N-(4-methoxyphenyl)-N-[[2-(3,4,5-trimethoxypheny)pyridin-4-yl]methyl]amino]-1-[[2-(3,4,5-trimethoxyphenyl)pyridin-4-yl]methyl]piperidine Trihydrochloride]
mRNA expression level of ABC transporter B2 ([1]; TNFα 10 ng/mL, 4 h): 69
mRNA expression level of B94 ([1]; TNFα 10 ng/mL, 4 h): 1010
mRNA expression level of BCL3 ([1]; TNFα 10 ng/mL, 4 h): 125
mRNA expression level of Cox-2 ([1]; TNFα 10 ng/mL, 4 h): 0
mRNA expression level of EphrinA1 ([1]; TNFα 10 ng/mL, 4 h): 148
mRNA expression level of Gro1 ([1]; TNFα 10 ng/mL, 4 h): 614
mRNA expression level of I kappa B alpha ([1]; TNFα 10 ng/mL, 4 h): 1259
mRNA expression level of IAP homolog B ([1]; TNFα 10 ng/mL, 4 h): 42
mRNA expression level of ICAM-1 ([1]; TNFα 10 ng/mL, 4 h): 2174
mRNA expression level of IFNGR2 ([1]; TNFα 10 ng/mL, 4 h): 186
mRNA expression level of IL-7R ([1]; TNFα 10 ng/mL, 4 h): 44
mRNA expression level of M-Ras-regulated GEF ([1]; TNFα 10 ng/mL, 4 h): 37
mRNA expression level of MCP-1 ([1]; TNFα 10 ng/mL, 4 h): 43
mRNA expression level of Na/K-ATPase beta-1 ([1]; TNFα 10 ng/mL, 4 h): 78
mRNA expression level of Nef associated factor 1 ([1]; TNFα 10 ng/mL, 4 h): 496
mRNA expression level of OB-cadherin-2 ([1]; TNFα 10 ng/mL, 4 h): 24
mRNA expression level of RDC1 ([1]; TNFα 10 ng/mL, 4 h): 27
mRNA expression level of Spliceosomal Protein Sap 49 ([1]; TNFα 10 ng/mL, 4 h): 40
mRNA expression level of TRAF1 ([1]; TNFα 10 ng/mL, 4 h): 88
mRNA expression level of VCAM-1 ([1]; TNFα 10 ng/mL, 4 h): 83
mRNA expression level of beta-galactoside alpha-2; 6-sialyltransferase ([1]; TNFα 10 ng/mL, 4 h): 14
mRNA expression level of caspase-like apoptosis regulatory protein 2 (clarp) ([1]; TNFα 10 ng/mL, 4 h): 76
mRNA expression level of cytoplasmic antiproteinase 2 (CAP2) ([1]; TNFα 10 ng/mL, 4 h): 78
mRNA expression level of ets-2 ([1]; TNFα 10 ng/mL, 4 h): 90
mRNA expression level of exodus-1 ([1]; TNFα 10 ng/mL, 4 h): 310
mRNA expression level of fractalkine ([1]; TNFα 10 ng/mL, 4 h): 7
mRNA expression level of junB ([1]; TNFα 10 ng/mL, 4 h): 210
mRNA expression level of lymphotoxin beta ([1]; TNFα 10 ng/mL, 4 h): −56
mRNA expression level of metalloproteinase stromelysin-2 ([1]; TNFα 10 ng/mL, 4 h): 54
mRNA expression level of ninjurin1 ([1]; TNFα 10 ng/mL, 4 h): 135
mRNA expression level of p50-NF-kappa B homolog ([1]; TNFα 10 ng/mL, 4 h): 33
number of genes whose expression was enhanced [1, 4]: 6 genes
number of genes whose expression was inhibited [1, 4]: 25 genes
GI50 (ACHN (renal cancer); Homo sapiens, 48 h): 1.9 µM
CC50 (ACHN (renal cancer); [5]): > 100 µM
TGI (ACHN (renal cancer)): >100 µM
TGI (DMS114 (lung cancer)): 2.6 µM
GI50 (DMS114 (lung cancer); Homo sapiens, DMS-114, 48 h): 0.038 µM
CC50 (DMS114 (lung cancer); Homo sapiens, DMS-114, 48 h, read-out: LC50 (the source's name)): > 100 µM
TGI (HCC2998 (colon cancer)): 10 µM
GI50 (HCC2998 (colon cancer); Homo sapiens, HCC 2998, 48 h): 0.33 µM
CC50 (HCC2998 (colon cancer); Homo sapiens, HCC 2998, 48 h, read-out: LC50 (the source's name)): 40 µM
GI50 (LOX-IMVI (melanoma); Homo sapiens, 48 h): 0.18 µM
CC50 (LOX-IMVI (melanoma); [5]): 41 µM
TGI (LOX-IMVI (melanoma)): 1.2 µM
GI50 (MCF-7 (breast cancer); Homo sapiens, MCF7, 48 h): 0.16 µM
CC50 (MCF-7 (breast cancer); Homo sapiens, MCF7, 48 h, read-out: LC50 (the source's name)): > 100 µM
TGI (MCF-7 (breast cancer)): >100 µM
GI50 (MKN74 (stomach cancer); Homo sapiens, MKN-74, 48 h): 0.026 µM
CC50 (MKN74 (stomach cancer); Homo sapiens, MKN-74, 48 h, read-out: LC50 (the source's name)): > 100 µM
TGI (MKN74 (stomach cancer)): 0.56 µM
GI50 (OVCAR-3 (ovarian cancer); Homo sapiens, 48 h, OVCAR-3, incubation two days): 0.35 µM
CC50 (OVCAR-3 (ovarian cancer); Homo sapiens, OVCAR-3, 48 h, read-out: LC50): > 100 µM
TGI (OVCAR-3 (ovarian cancer); OVCAR-3, incubation two days): 39 µM
GI50 ([2]; Homo sapiens, 48 h): 26.3 µM
CC50 [2, 5]: > 100 µM
TGI [2]: >100 µM
GI50 (SF-539 (brain tumor); Homo sapiens, 48 h): 0.83 µM
LC50 (concentration reducing cell count to 50% of time-zero count) (SF-539 (brain tumor); Homo sapiens, 48 h): > 100 µM
TGI (SF-539 (brain tumor)): >100 µM
growth inhibitory effect on cultured human cancer cells [3]: strong growth inhibitory effect
